{"source": "patent US20240156800A1", "about": "“EP300 DEGRADER AND USES THEREOF IN NEUROBLASTOMA” (DANA-FARBER CANCER INSTITUTE, INC., priority 2021, published 2024)", "key": {"BE2C-CRBN cells": {"system": "BE2C-CRBN cells", "assay": "Cell-Titer Glo growth of BE2C cells overexpressing CRBN or zsGreen", "type": "cell-based, human", "conditions": "10 μM, 6 days", "experimental": "Cells were infected with lentiviruses encoding sgRNAs or treated with compounds as described. Colony assays were performed by replating cells at 500 cells per well in 6-well dishes and grown in regular growth media for 10 d before 100% methanol fixation, 0.05% crystal violet staining, and quantitation. Experiments were completed in triplicate; data shown are the average of three independent experiments. Cell Titer-Glo® assay was performed as per the manufacturer's instructions (Promega®). Briefly, 1000 cells/well were plated into 96-well plates and treated with a range of compound dosing. Cell viability was measured at the noted time points based on luminescence by the Cell Titer-Glo® assay (Promega®) and read on an Envision 2104 (PerkinElmer®, USA) according to the manufacturer's protocol.\nsgRNAs targeting individual genes were subcloned by standard methodologies within pLKO.5-EFGP. Kelly, SIMA, BE2C, and NGP cells were infected with lenticas9 followed by blasticidin selection. Stable expression of cas9 was established by western blotting of protein lysates using cas9 antibody (Cell Signaling Technology®). Following infection of pLKO.5-EGFP-sgRNA lentivirus, cells were cultured for the identified times prior to evaluation. BE2C cells were infected with pLC-zsgreen or pLC-CRBN lentiviruses and selected using 500 μg/mL hygromycin (Invitrogen™)"}, "MYCN": {"system": "MYCN", "assay": "Western blotting of MYCN (whole lysates and chromatin extracts)", "type": "cell-based, human", "conditions": "Kelly cells, 0.5 and 1 μM, 24 h, chromatin extracts", "experimental": "(§1) Cells growing in culture were lysed for whole cell lysates as described in Durbin et al. Nat. Genet. 50:1240-1246 (2018) and Wang et al. Nat. Commun. 10:5622 (2019). Nuclear lysates were prepared using the NE-PER® nuclear lysate kit (Thermo Scientific™) according to the manufacturer's protocol. Chromatin lysates were prepared with the total histone extraction kit (Epigentek). Briefly, equivalent amounts of protein were resolved by western blotting using 4-12% Bis-Tris NuPAGE™ gels (Thermo-Fisher Scientific) prior to transfer, and immunoblotting using primary antibodies to: MYCN (1:1000, Cell Signaling Technology®), H3K27ac (1:1000, Abcam), total H3 (1:1000, Cell Signaling Technology®), EP300 (1:1000, Abcam), CBP (1:500, Cell Signaling Technology®), Cas9 (1:1000, Cell Signaling Technology®), cleaved-PARP1 (1:1000, Cell Signaling Technology), cleaved Caspase-3 (1:1000, Cell Signaling Technology®), β-actin (1:1000, Cell Signaling Technology®), GATA3 (1:1000, EMD Millipore™), TFAP2β (1:1000, Cell Signaling Technology®), Vinculin (1:1000, EMD Millipore™), CRBN (1:1000, Cell Signaling Technology®), HAND2 (1:1000, Santa Cruz Biotechnology). Secondary antibodies were horseradish peroxidase (HRP)-conjugated anti-rabbit or anti-mouse (1:5000, Santa Cruz Biotechnology), incubated prior to exposure to enhanced chemiluminescence reagents (GE, Amersham). For immunoprecipitation, equal amounts of protein were diluted in buffer C as described in Mansour et al. Science 346:1373-1377 (2014) and incubated with antibodies covalently conjugated to Dynabeads™ M-270 beads (Thermo-Fisher Scientific) overnight according to the manufacturer's directions. Antibodies used included: H3K27ac, EP300 (Abcam), CBP, TFAP2β (Cell Signaling Technology®), rabbit immunoglobulin G (IgG) (Santa Cruz Biotechnology®). Immunoprecipitated protein was isolated as per the manufacturer's directions and subjected to western blotting, as described above, or mass spectrometry."}, "H3K27ac": {"system": "H3K27ac", "assay": "Western blotting of H3K27ac in treated NB cells", "type": "cell-based, human", "conditions": "Kelly cells, 24 h", "experimental": "as §1"}, "557 cancer cell lines": {"system": "557 cancer cell lines", "assay": "PRISM pooled barcoded 5-day cell viability screen", "type": "cell-based, human", "experimental": "PRISM barcoded pooled screening was performed using JQAD1 in 578 barcoded cell lines as described in Corsello et al. Nat. Med. 23:405-8 (2017) and Corsello et al. Nat Cancer 1:235-48 (2020). Some cell lines included in the screen were genetically engineered to express exogenous genes, and these cell lines were removed to yield 557 cell lines. Briefly, cells in pools of 20-25 were thawed and plated into 384-well plates (1250 cells/well for adherent cell pools, 2000 cells/well for suspension or mixed suspension/adherent cell pools) containing compound (top concentration: 10 μM, 8-point, threefold dilution). All conditions were tested in triplicate. Cells were lysed after 5 days of treatment and mRNA-based Luminex® detection of barcode abundance from lysates was carried out as described in Corsello et al. Cancer 1:235-48 (2020). Luminex median fluorescence intensity (MFI) data was input to a standardized R pipeline to generate viability estimates relative to vehicle treatment for each cell line and treatment condition, and to fit dose-response curves from viability data."}, "Kelly NB cell xenografts": {"system": "Kelly NB cell xenografts", "assay": "Kelly NB cell subcutaneous xenografts in NSG mice", "type": "in vivo", "conditions": "40 mg/Kg IP once or twice daily", "experimental": "For tumor studies, eight-week-old female NSG™ mice (Jackson Laboratories) were subcutaneously implanted with 2.5×10^6 Kelly cells in 50% matrigel/PBS. Mice were assigned to three groups: vehicle (n=11), JQAD1 (40 mg/kg/day) (n=12) or JQAD1 (40 mg/kg, twice daily) (n=12) by IP injection. Treatment with small-molecule inhibitors was initiated once tumors engrafted and reached 100-150 mm^3. Mice were treated for 21 days and then followed for survival. Tumors were measured by calipers, and mice were weighed every three days. Animals were euthanized according to institutional guidelines when tumors reached […] in length or width, or if animals became moribund. Tumor sizes were compared at each time point by two-way ANOVA with post-hoc Tukey tests. Tumor growth curve kinetics were analyzed by both logistic regression and mixed-effects two-way ANOVA with post-hoc Tukey tests to determine whether growth kinetics differed between treatment groups.\nSeparately, eight animals were xenografted as described above, and treated with vehicle (n=4) or JQAD1 (n=4) at 40 mg/kg IP daily for 14 days. These animals were sacrificed at day 14, following which tumor was extracted, and divided for immunohistochemical analysis or analysis of RNA expression by RNA sequencing (RNA-seq)."}}, "note": "“Also recorded” adds a separate entry of the source."}
{"smiles": "C[C@H](N(Cc1ccc(F)cc1)C(=O)CN1C(=O)O[C@@]2(CCc3cc(NC(=O)CCCCCCCCCCCNc4ccc5c(c4)C(=O)N(C4CCC(=O)NC4=O)C5=O)ccc32)C1=O)C(F)(F)F", "note": "(stereo partly drawn) [JQAD1, 12-((2-(2,6-dioxopiperidin-3-yl)-1,3-dioxoisoindolin-5-yl)amino)-N-((R)-3′-(2-((4-fluorobenzyl)((S)-1,1,1-trifluoropropan-2-yl)amino)-2-oxoethyl)-2′,4′-dioxo-2,3-dihydrospiro[indene-1,5′-oxazolidin]-5-yl)dodecanamide]", "values": [{"measurement": "growth of BE2C-CRBN cells", "setting": "BE2C-CRBN cells", "result": "suppressed"}, {"measurement": "chromatin-bound MYCN", "setting": "MYCN", "result": "loss of both EP300 and chromatin-bound MYCN proteins"}, {"measurement": "H3K27ac modification", "setting": "H3K27ac", "result": "parallel loss of the H3K27ac modification"}, {"measurement": "H3K27ac modification", "setting": "H3K27ac; listed as (R,S)-JQAD1", "result": "suppressed both H3K27ac and EP300 expression levels"}, {"measurement": "antineoplastic activity", "setting": "557 cancer cell lines; 5 days, 557 cancer cell lines", "result": "antineoplastic activity across multiple tumor lineages"}, {"measurement": "area under the curve (AUC) of the dose-response in growth-inhibited cell lines", "setting": "557 cancer cell lines; 5 days, top concentration 10 μM, some example cell lines within the majority of tumor lineages", "result": "< 0.85"}, {"measurement": "relation of CRBN expression to AUC of the dose-response", "setting": "557 cancer cell lines; CRBN expression from CCLE", "result": "higher expression levels of CRBN were correlated with higher JQAD1-mediated antineoplastic activity"}, {"measurement": "body weight", "setting": "Kelly NB cell xenografts; NSG mice", "result": "body weight was maintained over 14 days of treatment"}, {"measurement": "survival", "setting": "Kelly NB cell xenografts; log-rank p<0.0001 versus vehicle", "result": "prolongation of survival; also recorded: prolongs survival"}, {"measurement": "xenograft tumor growth", "setting": "Kelly NB cell xenografts; p<0.05", "result": "suppression of xenograft tumor growth by day 3 of treatment"}]}
